Source: patent US6506737B1, “Antimicrobial phosphonium and sulfonium polyhalide compositions” (Ecolab, Inc., priority 2000, dated 2003)

Columns and labels:
[1] = tested on: S. aureus; assay: Biocidal efficacy, log reduction of S. aureus (Table 2); assay type: cell-based, Staphylococcus aureus; conditions: total active 0.12-0.89 mmole/liter as listed per composition; for Log Reduction (S. aureus) (30 seconds): 30 seconds exposure; for Log Reduction (S. aureus) (60 seconds): 60 seconds exposure
[2] = tested on: Staphylococcus aureus (ATCC 6538); assay: Antimicrobial efficacy, log reduction at 12 grams per gallon in sterile deionized water (Table 3); assay type: cell-based; conditions: ambient temperature
Experimental: (§1) A 4% solution of trimethyl sulfonium triiodide and a solution of 20% hexadecyl tributyl phosphonium diiodochloride were tested at a concentration of 12 grams per gallon in sterile deionized water against Staphylococcus aureus (ATCC 6538).

[3] = pH of the test solution (Table 3); assay type: physicochemical; conditions: test substance at 12 grams per gallon in sterile deionized water
Experimental: as §1

Compound	Log Reduction (S. aureus) (30 seconds) [1]	Log Reduction (S. aureus) (60 seconds) [1]	Log Reduction ([2]; exposure time 15 seconds)	Log Reduction ([2]; exposure time 30 seconds)	Log Reduction ([2]; exposure time 5 minutes, listed as 20% hexadecyl tributyl phosphonium diiodochloride)	pH [3]	Log Reduction ([2]; exposure time 30 seconds, listed as 4% trimethyl sulfonium triiodide)	Log Reduction ([2]; exposure time 5 minutes)
CCCC[N+](CCCC)(CCCC)CCCC.Cl[I-]I [tetrabutyl ammonium chloro diiodide]	>6.4	>6.4	–	–	–	–	–	–
C[N+](C)(C)CCO.Cl[I-]I [choline chloro diiodide]	>6.9	>6.9	–	–	–	–	–	–
C[N+](C)(C)C.Cl[I-]I [tetramethyl ammonium chloro diiodide]	4.0	>6.8	–	–	–	–	–	–
CCCCCCCCCCCCCCCC[P+](CCCC)(CCCC)CCCC.Cl[I-]I [tributyl hexadecyl phosphonium chloro diiodide]	5.0	6.2	3.74	4.98	6.21	4.61	–	–
C[S+](C)C.I[I-]I [trimethyl sulfonium triiodide]	>7.0	>7.0	4.67	–	–	2.52	>6.95	>6.95
